Patent US20190125735A1, “INHIBITION OF P38 MAPK FOR THE TREATMENT OF CANCER” (Board of Regents, The University of Texas System, priority 2015, published 2019)
Like-named read-outs stand apart in the source and are kept apart here. Blank lines part the entries; values can stand above or below the molecule they belong to. Where a SMILES comes first, the peptide text is derived from it. The star is where a group is joined. Cbz = O=C(OCc1ccccc1)*

How the values were obtained:
[1] = tested on: BCR-ABL+ mouse ALL cells seeded on MSCs (OP9 cells); assay: Clinical compound library screen, imatinib-pretreated MSC / BCR-ABL+ ALL cell co-culture; format: cell-based
Method: The effectiveness of the compounds was determined in preventing cluster formation by microscopy and the toxicity of the compounds by bioluminescence imaging of co-cultured MSCs and leukemic cells.
The clinical compounds library was purchased from the John S. Dunn Gulf Coast Consortium for Chemical Genomics (Houston, Tex.). […] Then, luciferase-labeled BCR-ABL+ mouse ALL cells were seeded on to the MSCs. Treatment was continued for 1 day, and the samples were evaluated via phase-contrast microscopy for the formation of leukemic cell clusters underneath the pretreated MSCs. To determine the compounds' toxicity in MSCs or leukemic cells, we examined the MSC/ALL cell co-cultures via microscopy and/or bioluminescence imaging.
Phase-contrast images of co-cultured MSCs and ALL cells were obtained using an Axio Observer.Z1 microscope, an AxioCam MR camera, and AxioVision software (Zeiss, Oberkochen, Germany). For screening, a cluster was defined as a group of more than five leukemic cells under the MSCs. The total number of leukemic cell clusters was the average number of clusters from three different fields (10× objective). For post-screening experiments, a cluster was defined as a group of more than 10 leukemic cells under the MSCs. The total number of leukemic cell clusters was the average number of clusters from 10 different fields (10× objective).

DU145 cells [2] = assay: MTS cell survival assay, DU145 cells; format: cell-based, human
Method: (§1) Immunoblotting, Immunofluorescence, RTPCR, wound healing- and tumorsphere assays were performed as previously described (Sarkar et al., 2015). Cell viability (MTS) was assessed using the CellTiter96 Aqueous One-Solution Cell Proliferation Assay kit (Promega).

LNCaP cells = assay: MTS cell survival assay, LNCaP cells over-expressing FOXC2; format: cell-based, human; conditions: LNCaP cells with FOXC2 expression
Text: Since FOXC2 is induced downstream of several different EMT inducers, and is by itself capable of potentiating the effects of multiple independent EMT signals (Taube et al., 2010), it was queried how ectopic expression of FOXC2 would impact the behavior of epithelial-like LNCaP cells, which are androgen-dependent. […] Again, FOXC2-induced EMT was associated with a reduction in PSA-promoter activity (as determined by loss in GFP) (FIG. 3A-lower panel), as well as loss in AR expression (FIGS. 3B,C).
as §1

DU145 cells [3] = assay: DU145 subcutaneous tumors in NOD/SCID mice; format: in vivo; conditions: subcutaneous dosing 5 days/week; SB203580 0.2 μmols per mouse, Enzalutamide 10 mg/kg; vs vehicle
Method: To investigate the effect of inhibition of FOXC2-dependent EMT/CSC attributes on tumor formation in vivo, NOD/SCID mice were subcutaneously injected with DU145 cells and began treatment in vivo, after formation of palpable tumors.
Immediately after sacrificing the mice, ˜100 μl blood was isolated via venipuncture in EDTA-treated collection tubes and stored on ice. Within 30 minutes, the blood was spun down at 1200 rpm for 5 minutes, and the pellet resuspended in 1 ml ACK-lysing buffer (Life Tech) and further incubated for 3-5 minutes. Cells were washed once with PBS, resuspended in RPMI with 10% FBS and pen/strep, and cultured on 10 cm tissue culture dishes. RFP-positive colonies (originating from the labeled DU145 cells injected into mice) were counted after 3-4 days in culture and quantified.
˜4 week-old male NOD.CB17-Prkdcscid/J mice were purchased from the Jackson Laboratory (Maine, USA). […] Once palpable tumors were discernable, tumor-bearing mice were randomly segregated into 4 groups, and drug treatment was initiated every 24 hours for 5 days/week. […] Investigators were blinded to the group allocation while assessing experimental outcomes. At the end of the treatment period, tumors were excised, average diameter calculated using calipers, and tumor weight noted. […]

DU145 cells [4] = conditions: parental DU145 cells, even at 10 μM; cited from earlier work
DU145 cells [5] = assay: Morphology and marker expression (qRTPCR, immunoblotting, IF) in DU145 cells; format: cell-based, human; conditions: DU145, LY364947 1 μM
Method: (§2) Cell lines: Authenticated LNCaP, DU145, and PC3 cells were procured from ATCC and cultured in RPMI with 10% fetal bovine serum (FBS) with penicillin/streptomycin. Cells overexpressing EMT transcription factors and shRNA were also cultured in the same media. HEK293T cells were cultured in DMEM with 10% FBS and penicillin/streptomycin. All cell lines used for this study were recently confirmed negative for mycoplasma contamination.
as §1

DU145 cells [6] = assay: Tumorsphere assay, DU145 cells; format: cell-based, human; conditions: DU145, LY364947 1 μM
Method: as §2, §1

HMLER-Snail cells = assay: Sphere formation in ultra-low attachment plates, HMLER-Snail cells; format: cell-based; conditions: Homo sapiens, cultured 7-10 days, spheres >75 μm, read-out: Concentration of the drug that induced 50% reduction in sphere formation
Method: (§3) (A) HMLER-Snail cells were treated with various p38 inhibitors. Cells were seeded in ultra-low attachment plates and cultured for 7-10 days. Spheres with a diameter greater than […] were counted. The data are reported as the number of spheres formed/1000 seeded cells±SEM. […] (B) SUM159 cells were treated with various p38 inhibitors. Cells were seeded in ultra-low attachment plates and cultured for 7-10 days. Spheres with a diameter greater than 75 μm were counted. The data are reported as the number of spheres formed/1000 seeded cells±SEM. […] (C) HMLE-Snail cells were treated with various p38 inhibitors. Cells were seeded in ultra-low attachment plates and cultured for 7-10 days. Spheres with a diameter greater than 75 μm were counted. The data are reported as the number of spheres formed/1000 seeded cells±SEM. […] (D) Western blots of HMLER-Snail cell treatment with various p38 inhibitors on Day 2 of treatment.

SUM159 cells = assay: Sphere formation in ultra-low attachment plates, SUM159 cells; format: cell-based; conditions: Homo sapiens, cultured 7-10 days, read-out: Concentration of the drug that induced 50% reduction in sphere formation
Method: as §3

HMLE-Snail cells = assay: Sphere formation in ultra-low attachment plates, HMLE-Snail cells; format: cell-based, human; conditions: cultured 7-10 days; for IC50: Homo sapiens, read-out: Concentration of the drug that induced 50% reduction in sphere formation
Method: as §3

FOXC2 = FOXC2 protein levels by immunoblotting in mammary cell lines; format: cell-based, human; conditions: pre-treatment with 10 μM MG132
Method: Immortalized human mammary epithelial (HMLE) cells expressing empty vector (pWZL), Snail, Twist, Goosecoid (GSC), or an activated form of TGFβ1, V12H-Ras-transformed HMLE (HMLER) and HMLER-FOXC2 cells were maintained as previously described (Elenbaas et al., 2001) For 4-hydroxy-tamoxifen (4-OHT) treatment, HMLE-Snail-ER or HMLE-Twist-ER cells were exposed to 20 nM 4-OHT for the indicated number of days. MCF7, MDA-MB-231 and SUM159 human breast cancer cells and the 4T1 mouse mammary carcinoma cells were cultured as described. Human non-tumorigenic MCF10A cells were cultured as described (Hollier et al., 2013), and treated with 2.5 ng/ml TGFβ1 for 3 days to elicit EMT.
Immunoblotting and immunofluorescence (Mani et al., 2008) were performed as previously described. Primary antibodies were as follows: β-actin (Sigma, St Louis, Mo., USA; A3853), mouse anti-human FOXC2 (Dr. Naoyuki Miura, Hamamatsu University School of Medicine, Japan), goat polyclonal anti-FOXC2 (Santa Cruz Biotechnology, Dallas, Tex., USA; sc-21397), p-p38 (Cell Signaling, Danvers, Mass., USA; 4511), p38 (Cell Signaling; 9211), E-cadherin (BD Biosciences, San Jose, Calif., USA; 61081), fibronectin (BD Biosciences; 610077), vimentin (Novus Biologicals, Littleton, Colo., USA; NB200-623), ZEB1 (Novus Biologicals; NBP1-05987), and HA (Covance, Princeton, N.J., USA; MMS-101P).

FOXC2 protein = assay: Western blots of FOXC2 protein in HMLER-Snail cells; format: cell-based; conditions: Homo sapiens, 48 h, Day 2 of treatment, read-out: Concentration of the drug that induced 50% reduction in FOXC2 protein
Method: as §3

[7] = imatinib 5 μM + compound 6.6 μM (dexamethasone 50 nM), 3 days pretreatment + 1 day

Structure (SMILES): CNCc1ccc(-c2[nH]c3cc(F)cc4c3c2CCNC4=O)cc1 [AG014699]
Imatinib-induced leukemic cell cluster formation [1, 7]: eliminated the leukemic cell clusters by eliciting toxicity toward clustered leukemic cells

Structure (SMILES): O=C(c1cc(Cc2n[nH]c(=O)c3ccccc23)ccc1F)N1CCN(C(=O)C2CC2)CC1 [AZD2281]
Imatinib-induced leukemic cell cluster formation [1, 7]: eliminated the leukemic cell clusters by eliciting toxicity toward clustered leukemic cells

Structure (SMILES): CN1CCN(c2ccc3nc(-c4c(N)c5c(F)cccc5[nH]c4=O)[nH]c3c2)CC1 [CHIR258]
Imatinib-induced leukemic cell cluster formation [1]: eliminated the leukemic cell clusters by eliciting toxicity toward clustered leukemic cells

Structure (SMILES): Cc1c[nH]c(-c2cnc(NCCNc3ccc(C#N)cn3)nc2-c2ccc(Cl)cc2Cl)n1 [CHIR99021]
Imatinib-induced leukemic cell cluster formation [1, 7]: directly prevented imatinib-induced leukemic cell cluster formation

Structure (SMILES): COc1cc2c(cc1OC)[C@@H]1C(=O)c3ccc4c(c3O[C@@H]1CO2)C=CC(C)(C)O4 [DEGUELIN]
Imatinib-induced leukemic cell cluster formation [1, 7]: directly prevented imatinib-induced leukemic cell cluster formation

Structure (SMILES): CC(=O)O[C@@]12CO[C@@H]1C[C@H](O)[C@@]1(C)C(=O)[C@H](O)C3=C(C)[C@@H](OC(=O)[C@H](O)[C@@H](NC(=O)OC(C)(C)C)c4ccccc4)C[C@@](O)([C@@H](OC(=O)c4ccccc4)[C@H]21)C3(C)C [Docetaxel]
Susceptibility of cells to the drug (cell survival) (DU145 cells [2]; DU145 with loss of FOXC2 expression, 100 nM Docetaxel): more susceptible | Resistance of cells to the drug (cell survival) (LNCaP cells): increasingly resistant

Structure (SMILES): CNC(=O)c1ccc(N2C(=S)N(c3ccc(C#N)c(C(F)(F)F)c3)C(=O)C2(C)C)cc1F [Enzalutamide]
Sensitivity of cells to the drug (cell survival) (DU145 cells [2]; DU145 with FOXC2 suppression, 100 nM Enzalutamide): more sensitive | Resistance of cells to the drug (cell survival) (LNCaP cells): increasingly resistant | Tumor size (volume and weight) (DU145 cells [3]): no appreciable change in tumor size | Sensitivity of cells to the drug (DU145 cells [4]): insensitive

Structure (SMILES): c1ccc(-c2[nH]ncc2-c2ccnc3ccccc23)nc1 [LY364947]
FOXC2 expression and p38 signaling (DU145 cells [5]): concomitant loss in FOXC2 expression and p38 signaling | Tumorsphere-forming capacity (DU145 cells [6]): markedly reduced tumorsphere-forming capacity

IC50 (HMLER-Snail cells): 10 nM | IC50 (SUM159 cells): 300 nM | IC50 (HMLE-Snail cells): 3000 nM
Structure (SMILES): CC(C)(C)Cn1c(N)nc2ccc(-c3[nH]c(C(C)(C)C)nc3-c3ccc(F)cc3)nc21 [LY2228820]

Structure (SMILES): CC(C)C[C@@H](C=O)NC(=O)[C@H](CC(C)C)NC(=O)[C@H](CC(C)C)NC(=O)OCc1ccccc1 [MG132] (Cbz-Leu-Leu-Leu-aldehyde)
Proteolytic degradation of FOXC2 following SB203580 treatment (FOXC2): rescued the proteolytic degradation of FOXC2

IC50 (HMLER-Snail cells): 10 nM | IC50 (SUM159 cells): 100 nM | IC50 (HMLE-Snail cells): 300 nM | IC50 (FOXC2 protein): 50 nM
Structure (SMILES): CNC(=O)c1ccc(C)c(-n2c(C)cc(OCc3ccc(F)cc3F)c(Br)c2=O)c1 [PH797804]

Structure (SMILES): Cc1ccc([N+](=O)[O-])cc1S(=O)(=O)N(C)/N=C/c1cnc2ccc(Br)cn12 [PIK75]
Imatinib-induced leukemic cell cluster formation [1, 7]: eliminated the leukemic cell clusters by eliciting toxicity toward clustered leukemic cells

Structure (SMILES): Oc1ccc(-c2nc(-c3ccc(F)cc3)c(-c3ccncc3)[nH]2)cc1 [SB202190, 4-(4-fluorophenyl)-2-(4-hydroxyphenyl)-5-(4-pyridyl)-1H-imidazole]
Imatinib-induced leukemic cell cluster formation [1, 7]: directly prevented imatinib-induced leukemic cell cluster formation

Structure (SMILES): O=C1NC(=O)c2c1c1c3ccccc3n3c1c1c2c2ccccc2n1C1CCC3O1 [SB218078]
Imatinib-induced leukemic cell cluster formation [1, 7]: directly prevented imatinib-induced leukemic cell cluster formation

IC50 (HMLER-Snail cells): 50000 nM | IC50 (SUM159 cells): 50000 nM
Structure (SMILES): NC(=O)c1ccc(N(C(N)=O)c2c(F)cccc2F)nc1-c1ccc(F)cc1F [VX-702]
Inhibition of sphere formation (HMLE-Snail cells): did not inhibit sphere formation | Imatinib-induced leukemic cell cluster formation [1, 7]: directly prevented imatinib-induced leukemic cell cluster formation

Structure (SMILES): C[C@@H](N)[C@H]1CC[C@H](C(=O)Nc2ccncc2)CC1 [Y-27632]
Imatinib-induced leukemic cell cluster formation [1, 7]: directly prevented imatinib-induced leukemic cell cluster formation

Structure (SMILES): Cc1ccc(NC(=O)c2ccc(CN3CCN(C)CC3)cc2)cc1Nc1nccc(-c2cccnc2)n1 [imatinib]
Phosphorylation of PDGFR-α/β (MSCs): reduced phosphorylation of PDGFR-α/β | Phosphorylation of ATF2 (MSCs; vs control): higher phosphorylation of ATF2 than control
